In experiment [1] the target is human immunoproteasome (LMP7) (Homo sapiens (Human), UniProt P28062). The experiment can be described thus: Determination of LMP7 activity (fluorescence intensity assay, Suc-LLVY-AMC). It is filed as biochemical. The note with it: for Selectivity LMP7 vs Beta5: LMP7 versus Beta5; for IC50: purified human immunoproteasome 0.25 nM, Suc-LLVY-AMC 40 μM. The protocol:
Determination of LMP7 Activity:
Measurement of LMP7 inhibition is performed in 384 well format based on fluorescence intensity assay.
Purified human immunoproteasome (0.25 nM) and serial diluted compounds in DMSO (range of concentrations from 30 μM to […]) or controls are incubated for 20 minutes at 25° C. in assay buffer containing 50 mM Tris pH 7.4, 0.03% SDS, 1 mM EDTA and 1% DMSO. The reaction is initiated by the addition of the fluorogenic peptide substrate, Suc-LLVY-AMC (Bachem 1-1395), at a concentration of 40 μM. After 60 minutes of incubation at 37° C., fluorescence intensity is measured at λex=350 nm and λem=450 nm with a fluorescence reader (Perkin Elmer Envision reader or equivalent).

Experiment [2] addresses human constitutive proteasome (Beta5) (Homo sapiens (Human), UniProt P28074). The experiment can be described thus: Determination of Beta5 activity (fluorescence intensity assay, Suc-LLVY-AMC). The format is biochemical. The note with it: purified human constitutive proteasome 1.25 nM, Suc-LLVY-AMC 40 μM. The protocol: Determination of Beta5 Activity:
Measurement of Beta5 inhibition is performed in 384 well format based on fluorescence intensity assay.
Purified human constitutive proteasome (1.25 nM) and serial diluted compounds in DMSO (range of concentrations from 30 μM to […]) or controls are incubated for 20 minutes at 25° C. in assay buffer containing 50 mM Tris pH 7.4, 0.03% SDS, 1 mM EDTA and 1% DMSO. The reaction is initiated by the addition of the fluorogenic peptide substrate, Suc-LLVY-AMC (Bachem 1-1395), at a concentration of 40 μM. After 60 minutes of incubation at 37° C., fluorescence intensity is measured at λex=350 nm and λem=450 nm with a fluorescence reader (Perkin Elmer Envision reader or equivalent).

The text below walks through data of US10294246B2, “Substituted boronic acids and boronate esters as immunoproteasome inhibitors” (MERCK PATENT GMBH, priority 2014, dated 2019).

Turning to `O=C(COc1ccccn1)N[C@@H](Cc1ccccc1)B(O)O` [Compound No. 2, [(1R)-2-phenyl-1-[[2-(2-pyridyloxy)acetyl]amino]ethyl]boronic acid], in experiment [1], the “Selectivity LMP7 vs Beta5” value is “++ (10 ≤ Selectivity < 50)” and the IC50 (in general, the midpoint of a concentration-inhibition curve) lay in the range of 50 to 500 nM. In experiment [2], this molecule registered an IC50 of 500 to 5000 nM.

Take `COc1ccc(CC(=O)N[C@@H](Cc2cc3ccccc3o2)B(O)O)cc1` [Compound No. 108, [(1R)-2-(benzofuran-2-yl)-1-[[2-(4-methoxyphenyl)acetyl]-amino]ethyl]boronic acid]: the “Selectivity LMP7 vs Beta5” value in experiment [1] is reported as “+++++ (Selectivity ≥ 100)”. Besides, the IC50 in experiment [1] is below 50 nM; in experiment [2], 500 to 5000 nM.

Turning to `N#Cc1cccc(CC(=O)N[C@@H](Cc2coc3ccccc23)B(O)O)c1` [Compound No. 123, [(1R)-2-(benzofuran-3-yl)-1-[[2-(3-cyanophenyl)acetyl]amino]ethyl]-boronic acid], the “Selectivity LMP7 vs Beta5” value in experiment [1] is recorded as “+++++ (Selectivity ≥ 100)”. Further, the values for the IC50 in experiment [1] and in experiment [2] were below 50 nM and 500 to 5000 nM, respectively.

As to `Cc1cccc2c1OC[C@H]2C[C@H](NC(=O)Cc1ccccc1C#N)B(O)O` [Compound No. 130, [(1R)-1-[[2-(2-cyanophenyl)acetyl]amino]-2-[(3S)-7-methyl-2,3-dihydrobenzofuran-3-yl]ethyl]boronic acid], in experiment [1], the “Selectivity LMP7 vs Beta5” value was “+++++ (Selectivity ≥ 100)”. The concentration for half-maximal inhibition (IC50) in experiment [1] is below 50 nM; in experiment [2] it was above 5000 nM.

With `CCNC(=O)c1ccccc1CC(=O)N[C@@H](Cc1coc2ccccc12)B(O)O` [Compound No. 65, [(1R)-2-(benzofuran-3-yl)-1-[[2-[2-(ethylcarbamoyl)phenyl]acetyl]-amino]ethyl]boronic acid], in experiment [1], the “Selectivity LMP7 vs Beta5” value is “++++ (70 ≤ Selectivity < 100)” and the IC50 is below 50 nM. In experiment [2], the IC50 lay within 500 to 5000 nM.

In the case of `CN(C)C(=O)c1ccccc1CC(=O)N[C@@H](Cc1coc2ccccc12)B(O)O` [Compound No. 66, [(1R)-2-(benzofuran-3-yl)-1-[[2-[2-(dimethylcarbamoyl)phenyl]acetyl]-amino]ethyl]boronic acid], in experiment [1], the “Selectivity LMP7 vs Beta5” value was “+++++ (Selectivity ≥ 100)” and the half-inhibitory concentration (IC50) was below 50 nM. This molecule also had an IC50 in experiment [2] of 500 to 5000 nM.

Consider `O=C(Cc1ncccc1C(=O)N1CCOCC1)N[C@@H](Cc1coc2ccccc12)B(O)O` [Compound No. 119, [(1R)-2-(benzofuran-3-yl)-1-[[2-[3-(morpholine-4-carbonyl)-2-pyridyl]acetyl]amino]ethyl]boronic acid], for which, in experiment [1], the “Selectivity LMP7 vs Beta5” value is recorded as “+++++ (Selectivity ≥ 100)” and the half-inhibitory concentration (IC50) is below 50 nM. Further, in experiment [2], the IC50 lay in the range of 500 to 5000 nM.

For the molecule `COc1ccc(CC(=O)N[C@@H](C[C@@H]2COc3c(C)cccc32)B(O)O)cc1` [Compound No. 89, [(1R)-1-[[2-(4-methoxyphenyl)acetyl]amino]-2-[(3S)-7-methyl-2,3-dihydrobenzofuran-3-yl]ethyl]boronic acid], in experiment [1], the “Selectivity LMP7 vs Beta5” value is “+++++ (Selectivity ≥ 100)” and the IC50 is below 50 nM. The concentration for half-maximal inhibition (IC50) in experiment [2] is above 5000 nM.

As for `CO[C@@H](C(=O)N[C@@H](Cc1coc2c(C)cccc12)B(O)O)c1ccccc1` [Compound No. 76, [(1R)-1-[[(2R)-2-methoxy-2-phenyl-acetyl]amino]-2-(7-methylbenzofuran-3-yl)ethyl]boronic acid], the “Selectivity LMP7 vs Beta5” value in experiment [1] is “+++++ (Selectivity ≥ 100)”. Further, the IC50 in experiment [1] is below 50 nM; in experiment [2], 500 to 5000 nM.

For the molecule `CO[C@@H](C(=O)N[C@@H](CC1COc2c(C)cccc21)B(O)O)c1ccccc1` (stereo partly drawn) [Compound No. 93, [(1R)-1-[[(2R)-2-methoxy-2-phenyl-acetyl]amino]-2-(7-methyl-2,3-dihydrobenzofuran-3-yl)ethyl]boronic acid], in experiment [1], the “Selectivity LMP7 vs Beta5” value is “+++++ (Selectivity ≥ 100)” and the IC50 was below 50 nM. This molecule displayed a concentration for half-maximal inhibition (IC50) in experiment [2] above 5000 nM.

With `COCc1ccc(CC(=O)N[C@@H](Cc2coc3ccccc23)B(O)O)cc1` [Compound No. 30, [(1R)-2-(benzofuran-3-yl)-1-[[2-[4-(methoxymethyl)phenyl]acetyl]-amino]ethyl]boronic acid], in experiment [1], the “Selectivity LMP7 vs Beta5” value is “++++ (70 ≤ Selectivity < 100)” and the IC50 is below 50 nM. The molecule also displayed a 50% inhibitory concentration (IC50) in experiment [2] of 50 to 500 nM.

`O=C(Cc1ccccn1)NC(Cc1coc2ccccc12)B(O)O` (centres unmarked) [Compound No. 112, [2-(benzofuran-3-yl)-1-[[2-(2-pyridyl)acetyl]amino]ethyl]boronic acid]: in experiment [1], the “Selectivity LMP7 vs Beta5” value is recorded as “+++++ (Selectivity ≥ 100)” and the IC50 is below 50 nM. The molecule also came in with an IC50 in experiment [2] of 500 to 5000 nM.

In the case of `COc1ccc(OC)c(CC(=O)N[C@@H](Cc2coc3ccccc23)B(O)O)c1` [Compound No. 58, [(1R)-2-(benzofuran-3-yl)-1-[[2-(2,5-dimethoxyphenyl)acetyl]amino]-ethyl]boronic acid], in experiment [1], the “Selectivity LMP7 vs Beta5” value was “++++ (70 ≤ Selectivity < 100)” and the IC50 is below 50 nM. Moreover, the half-inhibitory concentration (IC50) in experiment [2] was in the range of 50 to 500 nM.

`Cc1ccc(C)c2c(C[C@H](NC(=O)Cc3ccccc3)B(O)O)coc12` [Compound No. 128, [(1R)-2-(4,7-dimethylbenzofuran-3-yl)-1-[(2-phenylacetyl)-amino]ethyl]boronic acid]: in experiment [1], the “Selectivity LMP7 vs Beta5” value is recorded as “+++++ (Selectivity ≥ 100)” and the IC50 was below 50 nM. In experiment [2], the IC50 was above 5000 nM.

`Cc1cccc2c(C[C@H](NC(=O)[C@@H](CO)c3ccccc3)B(O)O)coc12` [Compound No. 83, [(1R)-1-[[(2R)-3-hydroxy-2-phenyl-propanoyl]amino]-2-(7-methylbenzofuran-3-yl)ethyl]boronic acid]: in experiment [1], the “Selectivity LMP7 vs Beta5” value is “+++++ (Selectivity ≥ 100)” and the IC50 is below 50 nM. The molecule also showed a concentration for half-maximal inhibition (IC50) in experiment [2] of 500 to 5000 nM.

Take `CC(=O)Nc1ccc(CC(=O)N[C@@H](Cc2coc3ccccc23)B(O)O)cc1` [Compound No. 26, [(1R)-1-[[2-(4-acetamidophenyl)acetyl]amino]-2-(benzofuran-3-yl)ethyl]boronic acid]: the “Selectivity LMP7 vs Beta5” value in experiment [1] was “+++++ (Selectivity ≥ 100)”. This molecule displayed a 50% inhibitory concentration (IC50) in experiment [2] of 50 to 500 nM.

With `COc1ccc(CCC(=O)N[C@@H](CC2COc3c(C)cccc32)B(O)O)nc1` (stereo partly drawn) [Compound No. 86, [(1R)-1-[3-(5-methoxy-2-pyridyl)propanoylamino]-2-(7-methyl-2,3-dihydrobenzofuran-3-yl)ethyl]boronic acid], the “Selectivity LMP7 vs Beta5” value in experiment [1] is “+++++ (Selectivity ≥ 100)”. For the same molecule, the half-inhibitory concentration (IC50) in experiment [1] was below 50 nM; in experiment [2] it was above 5000 nM.

In the case of `O=C(Cc1ccccc1C(F)(F)F)N[C@@H](Cc1coc2ccccc12)B(O)O` [Compound No. 24, [(1R)-2-(benzofuran-3-yl)-1-[[2-[2-(trifluoromethyl)phenyl]acetyl]-amino]ethyl]boronic acid], the “Selectivity LMP7 vs Beta5” value in experiment [1] is “+++++ (Selectivity ≥ 100)”. Further, the IC50 in experiment [1] is below 50 nM; in experiment [2] it was 500 to 5000 nM.

For the molecule `COc1ccc(CC(=O)N[C@H](Cc2coc3c(C)cccc23)B(O)O)cc1` [Compound No. 81, [(1S)-1-[[2-(4-methoxyphenyl)acetyl]amino]-2-(7-methylbenzofuran-3-yl)ethyl]boronic acid], in experiment [1], the “Selectivity LMP7 vs Beta5” value is on record as “+++++ (Selectivity ≥ 100)” and the concentration for half-maximal inhibition (IC50) lay in the range of 50 to 500 nM. Besides, the IC50 in experiment [2] is above 5000 nM.
